Data reported in US20240391931A1 (Bristol-Myers Squibb Company, priority 2021, published 2024).

Legend:
[1] = target: HER2YVMA (Homo sapiens, UniProt P04626, INS775YVMA); assay: HER2 signaling (pHER2) in Hek293-HER2YVMA cells; type: cell-based; set-up: expressed in transfected cells; host or cells: HEK293 (pool), Ba/F3 (clones), BEAS2B (clones); lentiviral vector pCDH-CMV-MCS-EF1-Neo; details: 1.5 hr compound, 1% FBS, read-out: HEKYVMA pHER2 EC50
In short: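 Lentivirally transduced HER2YVMA lines (HEK293 pool; BEAS2B clone) treated 1.5 h at 37 °C in 1% FBS medium with compound at 0.0005–1.1 μM. Lysates read by MSD immunoassay for pHER2 (Tyr1248) normalized to total HER2, as % DMSO control; EC50 from variable-slope sigmoidal fit.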

[2] = target: EGFR (Homo sapiens, UniProt P00533); assay: EGFR signaling (pEGFR Tyr1068/total EGFR MSD) in A431 cells; type: cell-based; set-up: endogenous in cells; host or cells: A431, N87; details: for EC50: A431 cells, read-out: A431 pEGFR EC50; for Selectivity A431 EC50/BT474 EC50: ratio A431 pEGFR EC50 to BT474 pHER2 EC50; for Selectivity A431 EC50/HEKYVMA EC50: ratio A431 pEGFR EC50 to HEK YVMA pHER2 EC50
EGFR, sequence (P00533 25-1210): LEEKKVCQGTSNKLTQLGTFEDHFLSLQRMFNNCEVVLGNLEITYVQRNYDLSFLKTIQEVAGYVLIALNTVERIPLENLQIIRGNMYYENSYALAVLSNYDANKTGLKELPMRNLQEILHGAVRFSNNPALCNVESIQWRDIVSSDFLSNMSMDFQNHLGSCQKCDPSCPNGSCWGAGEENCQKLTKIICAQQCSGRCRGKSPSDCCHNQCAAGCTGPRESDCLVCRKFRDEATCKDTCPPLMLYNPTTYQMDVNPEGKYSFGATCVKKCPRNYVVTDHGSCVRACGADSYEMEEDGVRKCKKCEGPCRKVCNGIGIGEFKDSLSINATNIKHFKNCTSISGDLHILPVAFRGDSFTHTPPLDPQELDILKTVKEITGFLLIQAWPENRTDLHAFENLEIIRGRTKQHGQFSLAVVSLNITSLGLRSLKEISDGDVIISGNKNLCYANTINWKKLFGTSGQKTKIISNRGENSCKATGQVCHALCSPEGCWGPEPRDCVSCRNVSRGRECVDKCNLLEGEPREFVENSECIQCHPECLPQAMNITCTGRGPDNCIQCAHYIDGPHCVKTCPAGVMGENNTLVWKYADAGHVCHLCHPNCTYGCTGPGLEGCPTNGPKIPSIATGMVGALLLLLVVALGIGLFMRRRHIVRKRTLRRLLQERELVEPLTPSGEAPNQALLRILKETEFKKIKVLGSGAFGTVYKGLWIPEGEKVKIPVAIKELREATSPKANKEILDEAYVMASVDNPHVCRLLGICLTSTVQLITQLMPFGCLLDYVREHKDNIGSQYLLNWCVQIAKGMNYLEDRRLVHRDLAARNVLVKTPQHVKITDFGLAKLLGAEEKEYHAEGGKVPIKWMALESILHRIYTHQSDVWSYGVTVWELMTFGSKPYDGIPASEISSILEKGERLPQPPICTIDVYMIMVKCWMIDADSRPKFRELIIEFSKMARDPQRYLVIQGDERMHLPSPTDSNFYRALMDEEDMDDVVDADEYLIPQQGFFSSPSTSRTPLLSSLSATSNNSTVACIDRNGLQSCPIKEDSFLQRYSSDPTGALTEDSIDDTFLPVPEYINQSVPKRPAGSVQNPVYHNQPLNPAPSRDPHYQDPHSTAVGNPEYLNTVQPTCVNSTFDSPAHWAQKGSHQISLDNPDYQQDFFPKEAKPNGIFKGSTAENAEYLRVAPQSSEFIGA
In short: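 EC50 was fitted with variable Hill slope from MSD pTyr1068/total EGFR ratios, expressed as % DMSO control. A431 cells were starved overnight, then exposed 1.5 h to eight concentrations from 10 to 0.005 μM in 1% FBS before a 10-min 100 ng/mL EGF pulse.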

HER2YVMA, sequence (P04626 with tags, fused parts or gaps INS775YVMA): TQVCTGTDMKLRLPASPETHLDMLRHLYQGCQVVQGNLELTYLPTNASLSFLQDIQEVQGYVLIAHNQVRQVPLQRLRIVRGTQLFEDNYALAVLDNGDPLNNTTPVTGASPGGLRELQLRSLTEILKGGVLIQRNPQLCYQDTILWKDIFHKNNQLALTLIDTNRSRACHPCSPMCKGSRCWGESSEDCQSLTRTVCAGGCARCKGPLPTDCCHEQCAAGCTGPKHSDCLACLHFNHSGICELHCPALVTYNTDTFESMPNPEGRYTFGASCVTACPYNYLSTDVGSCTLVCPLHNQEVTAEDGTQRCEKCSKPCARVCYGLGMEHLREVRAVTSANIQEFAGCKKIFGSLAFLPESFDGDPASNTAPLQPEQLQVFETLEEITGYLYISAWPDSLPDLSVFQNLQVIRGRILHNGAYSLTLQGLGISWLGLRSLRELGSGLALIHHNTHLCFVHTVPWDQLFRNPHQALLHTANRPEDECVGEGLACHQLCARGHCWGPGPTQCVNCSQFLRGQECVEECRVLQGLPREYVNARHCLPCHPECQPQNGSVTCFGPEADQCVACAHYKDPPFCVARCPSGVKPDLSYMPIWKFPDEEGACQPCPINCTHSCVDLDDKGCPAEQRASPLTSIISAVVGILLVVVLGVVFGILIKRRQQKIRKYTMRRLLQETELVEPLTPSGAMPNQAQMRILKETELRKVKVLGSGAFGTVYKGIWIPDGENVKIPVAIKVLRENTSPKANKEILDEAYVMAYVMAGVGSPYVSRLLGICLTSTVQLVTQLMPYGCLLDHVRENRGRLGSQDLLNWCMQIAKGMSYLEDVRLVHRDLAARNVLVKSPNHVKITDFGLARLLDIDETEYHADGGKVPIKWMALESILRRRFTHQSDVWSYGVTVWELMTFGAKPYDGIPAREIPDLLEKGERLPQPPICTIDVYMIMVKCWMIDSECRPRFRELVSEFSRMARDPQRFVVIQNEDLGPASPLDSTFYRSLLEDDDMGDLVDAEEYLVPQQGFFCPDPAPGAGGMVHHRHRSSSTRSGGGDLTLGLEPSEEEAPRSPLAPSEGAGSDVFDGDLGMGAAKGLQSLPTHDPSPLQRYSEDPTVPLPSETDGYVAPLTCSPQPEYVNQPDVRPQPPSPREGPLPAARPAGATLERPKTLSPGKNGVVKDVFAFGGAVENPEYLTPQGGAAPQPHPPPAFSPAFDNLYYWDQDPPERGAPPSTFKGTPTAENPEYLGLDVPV

Compound | EC50 [1] [µM] | EC50 [2] [µM] | Selectivity A431 EC50/BT474 EC50 [2] | Selectivity A431 EC50/HEKYVMA EC50 [2]
Cc1nc2cc(Oc3ccc(Nc4ncnc5sc6c(c45)CCN(C(=O)/C=C/CN(C)C)C6)cc3C)ccn2n1 [Compound 127, (E)-4-(dimethylamino)-1-(4-((3-methyl-4-((2-methyl-[1,2,4]triazolo[1,5-a]pyridin-7-yl)oxy)phenyl)amino)-5,6-dihydropyrido[4′,3′:4,5]thieno[2,3-d]pyrimidin-7(8H)-yl)but-2-en-1-one] | < 0.1 | 1 to 10 | A (A: ≥100) | B (B: ≥ 20 and < 100)
Cc1cc(Nc2ncnc3sc4c(c23)CN(C(=O)/C=C/CN(C)C)C4)ccc1Oc1ccn2ncnc2c1 [Compound 130, (E)-1-(4-((4-([1,2,4]Triazolo[1,5-a]pyridin-7-yloxy)-3-methylphenyl)amino)-5H-pyrrolo[3′,4′:4,5]thieno[2,3-d]pyrimidin-6(7H)-yl)-4-(dimethylamino)but-2-en-1-one] | < 0.1 | 1 to 10 | A (A: ≥100) | A (A: ≥100)
Cc1ccc(Oc2ccc(Nc3ncnc4sc5c(c34)CCN(C(=O)/C=C/CN3CC[C@@H](CO)C3)C5)cc2C)cn1 [Compound 132] | < 0.1 | 0.1 to 1 | B (B: ≥ 20 and < 100) | C (C: ≥ 10 and < 20)
Cc1ccc(Oc2ccc(Nc3ncnc4sc5c(c34)CCN(C(=O)/C=C/CN3CCC(CO)(CO)CC3)C5)cc2C)cn1 [Compound 135] | 0.1 to 0.35 | 1 to 10 | B (B: ≥ 20 and < 100) | D (D: ≥ 5 and < 10)
Cc1cc(Nc2ncnc3sc4c(c23)CCN(C(=O)/C=C/CN(C)C)C4)ccc1Oc1ccn2ncnc2c1 [Compound 138, (E)-1-(4-((4-([1,2,4]triazolo[1,5-a]pyridin-7-yloxy)-3-methylphenyl)amino)-5,8-dihydropyrido[4′,3′:4,5]thieno[2,3-d]pyrimidin-7(6H)-yl)-4-(dimethylamino)but-2-en-1-one] | < 0.1 | 0.1 to 1 | B (B: ≥ 20 and < 100) | A (A: ≥100)
C#CCOCCN(C)C/C=C/C(=O)N1CCc2c(sc3ncnc(Nc4ccc(Oc5ccc(C)nc5)c(C)c4)c23)C1 [Compound 139] | < 0.1 | < 0.1 | B (B: ≥ 20 and < 100) | B (B: ≥ 20 and < 100)
COc1ccc(Oc2ccc(Nc3ncnc4sc5c(c34)CCN(C(=O)/C=C/CN3CC[C@H](CO)C3)C5)cc2C)cn1 [Compound 140] | < 0.1 | 0.1 to 1 | B (B: ≥ 20 and < 100) | C (C: ≥ 10 and < 20)
C=CC(=O)N1Cc2sc3ncnc(Nc4ccc(Oc5ccc(C)nc5)c(C)c4)c3c2C(C)C1 (stereo not drawn) [Compound 142, 1-(5-methyl-4-((3-methyl-4-((6-methylpyridin-3-yl)oxy)phenyl)amino)-5,6-dihydropyrido[4′,3′:4,5]thieno[2,3-d]pyrimidin-7(8H)-yl)prop-2-en-1-one] | < 0.1 | 0.1 to 1 | B (B: ≥ 20 and < 100) | B (B: ≥ 20 and < 100)
Cc1ccc(Oc2ccc(Nc3ncnc4sc5c(c34)CCN(C(=O)/C=C/CN3CC(F)(CO)C3)C5)cc2C)cn1 [Compound 151] | 0.1 to 0.35 | 0.1 to 1 | B (B: ≥ 20 and < 100) | E (E: >1 and < 5)
Cc1ccc(Oc2ccc(Nc3ncnc4sc5c(c34)CN(C(=O)/C=C/CN(C)C)C5C)cc2C)cn1 (stereo not drawn) [Compound 153, (E)-4-(dimethylamino)-1-(7-methyl-4-((3-methyl-4-((6-methylpyridin-3-yl)oxy)phenyl)amino)-5,7-dihydro-6H-pyrrolo[3′,4′:4,5]thieno[2,3-d]pyrimidin-6-yl)but-2-en-1-one] | < 0.1 | 0.1 to 1 | B (B: ≥ 20 and < 100) | C (C: ≥ 10 and < 20)

Next, values leading:

EC50 [1] [µM] | EC50 [2] [µM] | Selectivity A431 EC50/BT474 EC50 [2] | Selectivity A431 EC50/HEKYVMA EC50 [2] | Compound
< 0.1 | 1 to 10 | B (B: ≥ 20 and < 100) | B (B: ≥ 20 and < 100) | COc1ccc(Oc2ccc(Nc3ncnc4sc5c(c34)CN(C(=O)/C=C/CN(C)C)C5)cc2C)cn1 [Compound 128, (E)-4-(dimethylamino)-1-(4-((4-((6-methoxypyridin-3-yl)oxy)-3-methylphenyl)amino)-5,7-dihydro-6H-pyrrolo[3′,4′:4,5]thieno[2,3-d]pyrimidin-6-yl)but-2-en-1-one]
< 0.1 | 0.1 to 1 | B (B: ≥ 20 and < 100) | B (B: ≥ 20 and < 100) | Cc1ccc(Oc2ccc(Nc3ncnc4sc5c(c34)CN(C(=O)/C=C/CN(C)C)C5)cc2Cl)cn1 [Compound 129, (E)-1-(4-((3-Chloro-4-((6-methylpyridin-3-yl)oxy)phenyl)amino)-5H-pyrrolo[3′,4′:4,5]thieno[2,3-d]pyrimidin-6(7H)-yl)-4-(dimethylamino)but-2-en-1-one]
< 0.1 | < 0.1 | C (C: ≥ 10 and < 20) | D (D: ≥ 5 and < 10) | CCN(CC)C/C=C/C(=O)N1CCc2c(sc3ncnc(Nc4ccc(Oc5ccc(C)nc5)c(C)c4)c23)C1 [Compound 131]
< 0.1 | 0.1 to 1 | B (B: ≥ 20 and < 100) | C (C: ≥ 10 and < 20) | Cc1ccc(Oc2ccc(Nc3ncnc4sc5c(c34)CCN(C(=O)/C=C/CN3CC[C@H](CO)C3)C5)cc2C)cn1 [Compound 133]
0.1 to 0.35 | 1 to 10 | B (B: ≥ 20 and < 100) | B (B: ≥ 20 and < 100) | Cc1ccc(Oc2ccc(Nc3ncnc4sc5c(c34)CCN(C(=O)/C=C/CN3CC(CO)(CO)C3)C5)cc2C)cn1 [Compound 134]
< 0.1 | 0.1 to 1 | B (B: ≥ 20 and < 100) | C (C: ≥ 10 and < 20) | Cc1ccc(Oc2ccc(Nc3ncnc4sc5c(c34)CCN(C(=O)/C=C/CN3CCO[C@H](CO)C3)C5)cc2C)cn1 [Compound 136]
< 0.1 | 0.1 to 1 | D (D: ≥ 5 and < 10) | D (D: ≥ 5 and < 10) | CCN(CC)C/C=C/C(=O)N1CCc2c(sc3ncnc(Nc4ccc(Oc5ccc(OC)nc5)c(C)c4)c23)C1 [Compound 137]
< 0.1 | 0.1 to 1 | B (B: ≥ 20 and < 100) | B (B: ≥ 20 and < 100) | Cc1ccc(Oc2ccc(Nc3ncnc4sc5c(c34)C(C)N(C(=O)/C=C/CN(C)C)C5)cc2C)cn1 (stereo not drawn) [Compound 141, (E)-4-(dimethylamino)-1-(5-methyl-4-((3-methyl-4-((6-methylpyridin-3-yl)oxy)phenyl)amino)-5,7-dihydro-6H-pyrrolo[3′,4′:4,5]thieno[2,3-d]pyrimidin-6-yl)but-2-en-1-one]
< 0.1 | < 0.1 | C (C: ≥ 10 and < 20) | E (E: >1 and < 5) | COc1ccc(Oc2ccc(Nc3ncnc4sc5c(c34)CCN(C(=O)/C=C/CN3CC[C@@H](CO)C3)C5)cc2C)cn1 [Compound 143]
0.1 to 0.35 | 0.1 to 1 | B (B: ≥ 20 and < 100) | D (D: ≥ 5 and < 10) | Cc1ccc(Oc2ccc(Nc3ncnc4sc5c(c34)CCN(C(=O)/C=C/CN3CCO[C@@H](CO)C3)C5)cc2C)cn1 [Compound 144]
< 0.1 | 0.1 to 1 | B (B: ≥ 20 and < 100) | E (E: >1 and < 5) | Cc1ccc(Oc2ccc(Nc3ncnc4sc5c(c34)CCN(C(=O)/C=C/CN3CCCC(F)(CO)C3)C5)cc2C)cn1 (stereo not drawn) [Compound 150]
< 0.1 | 0.1 to 1 | C (C: ≥ 10 and < 20) | C (C: ≥ 10 and < 20) | COc1ccc(Oc2ccc(Nc3ncnc4sc5c(c34)C(C)CN(C(=O)/C=C/CN(C)C)C5)cc2C)cn1 (stereo not drawn) [Compound 152, (E)-4-(dimethylamino)-1-(4-((4-((6-methoxypyridin-3-yl)oxy)-3-methylphenyl)amino)-5-methyl-5,8-dihydropyrido[4′,3′:4,5]thieno[2,3-d]pyrimidin-7(6H)-yl)but-2-en-1-one]
< 0.1 | < 0.1 | C (C: ≥ 10 and < 20) | E (E: >1 and < 5) | Cc1ccc(Oc2ccc(Nc3ncnc4sc5c(c34)CCN(C(=O)/C=C/CN3CCC[C@@H](CO)C3)C5)cc2C)cn1 [Compound 154]
< 0.1 | < 0.1 | B (B: ≥ 20 and < 100) | E (E: >1 and < 5) | Cc1ccc(Oc2ccc(Nc3ncnc4sc5c(c34)CCN(C(=O)/C=C/CN3CCC[C@H](CO)C3)C5)cc2C)cn1 [Compound 155]
